Laboratory results: patent publication US20040082635A1, “Fused cyclic compounds and medicinal use thereof” (priority 2001, published 2004)
Counter-ions that a name gives are not always drawn.

Target: T1, HCV polymerase (Hepatitis C virus genotype 1b, UniProt P26663)
T1 construct: a region encoding NS5B (591 amino acids; J Virol 1991 Mar, 65(3), 1105-13) was amplified by PCR; 6 His (N); made in house; host or cells: Escherichia coli
Assay: biochemical
Settings: read-out: HCV polymerase inhibitory activity IC50

T1 sequence (P26663 2420-3010): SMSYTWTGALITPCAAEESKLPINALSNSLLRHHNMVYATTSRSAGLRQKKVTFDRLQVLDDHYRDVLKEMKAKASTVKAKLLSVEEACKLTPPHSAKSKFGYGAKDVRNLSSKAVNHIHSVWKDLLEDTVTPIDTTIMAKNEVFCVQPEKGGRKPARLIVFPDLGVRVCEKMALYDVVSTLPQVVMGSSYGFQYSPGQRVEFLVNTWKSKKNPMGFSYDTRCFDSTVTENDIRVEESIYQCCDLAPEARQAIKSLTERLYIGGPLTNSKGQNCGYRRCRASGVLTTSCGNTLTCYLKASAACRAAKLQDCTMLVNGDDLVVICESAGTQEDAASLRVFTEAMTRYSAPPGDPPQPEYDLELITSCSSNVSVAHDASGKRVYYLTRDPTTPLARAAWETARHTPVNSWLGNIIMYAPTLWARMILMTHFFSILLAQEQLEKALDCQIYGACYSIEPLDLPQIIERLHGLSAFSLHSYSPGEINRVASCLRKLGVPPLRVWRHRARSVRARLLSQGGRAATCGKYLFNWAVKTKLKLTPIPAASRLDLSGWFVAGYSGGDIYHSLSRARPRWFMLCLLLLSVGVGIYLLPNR

Row | SMILES | IC50 [nM]
1 | O=C(O)c1ccc2c(c1)nc(-c1ccc(OCc3cc(NC4=NCCO4)ccc3-c3ccc(Cl)cc3)cc1F)n2C1CCCCC1 [Example 425, 2-{4-[2-(4-chlorophenyl)-5-(2-oxazolin-2-ylamino)benzyloxy]-2-fluorophenyl}-1-cyclohexylbenzimidazole-5-carboxylic acid dihydrochloride] | 26
2 | CN(C)C(=O)COCc1nc(-c2ccc(F)cc2)c(COc2ccc(-c3nc4cc(C(=O)O)ccc4n3C3CCCCC3)cc2)s1 [Example 426, 2-{4-[{2-[{(dimethylcarbamoyl)methoxy}methyl]-4-(4-fluorophenyl)thiazol-5-yl}methoxy]phenyl}-1-cyclohexylbenzimidazole-5-carboxylic acid hydrochloride] | 53
3 | O=C(O)c1ccc2c(c1)nc(-c1ccc(OCc3sc(CN4CCC(O)CC4)nc3-c3ccc(F)cc3)cc1)n2C1CCCCC1 [Example 427, 2-{4-[{4-(4-fluorophenyl)-2-(4-hydroxypiperidin-1-ylmethyl)thiazol-5-yl}methoxy]phenyl}-1-cyclohexylbenzimidazole-5-carboxylic acid dihydrochloride] | 20
4 | NC(=O)COCc1nc(-c2ccc(F)cc2)c(COc2ccc(-c3nc4cc(C(=O)O)ccc4n3C3CCCCC3)cc2)s1 [Example 428, 2-{4-[{4-(4-fluorophenyl)-2-[(carbamoylmethoxy)methyl]thiazol-5-yl}methoxy]phenyl}-1-cyclohexylbenzimidazole-5-carboxylic acid hydrochloride] | 26
5 | CNC(=O)c1nc(-c2ccc(F)cc2)c(COc2ccc(-c3nc4cc(C(=O)O)ccc4n3C3CCCCC3)c(F)c2)s1 [Example 429, 2-{4-[{4-(4-fluorophenyl)-2-(methylcarbamoyl)thiazol-5-yl}methoxy]-2-fluorophenyl}-1-cyclohexylbenzimidazole-5-carboxylic acid hydrochloride] | 17
6 | O=C(O)c1ccc2c(c1)nc(-c1ccc(OCc3sc(C(=O)NCCO)nc3-c3ccc(F)cc3)cc1F)n2C1CCCCC1 [Example 430, 2-{4-[{4-(4-fluorophenyl)-2-{(2-hydroxyethyl)carbamoyl}thiazol-5-yl}methoxy]-2-fluorophenyl}-1-cyclohexylbenzimidazole-5-carboxylic acid hydrochloride] | 17
7 | CN(C)C(=O)c1cc(COc2ccc(-c3nc4cc(C(=O)O)ccc4n3C3CCCCC3)c(F)c2)c(-c2ccc(F)cc2)s1 [Example 431, 2-{4-[{2-(4-fluorophenyl)-5-(dimethylcarbamoyl)thiophen-3-yl}methoxy]-2-fluorophenyl}-1-cyclohexylbenzimidazole-5-carboxylic acid hydrochloride] | 15
8 | CC(C)NC(=O)c1cc(COc2ccc(-c3nc4cc(C(=O)O)ccc4n3C3CCCCC3)c(F)c2)c(-c2ccc(F)cc2)s1 [Example 432, 2-{4-[{2-(4-fluorophenyl)-5-(isopropylcarbamoyl)thiophen-3-yl}methoxy]-2-fluorophenyl}-1-cyclohexylbenzimidazole-5-carboxylic acid hydrochloride] | 22
9 | O=C(O)c1ccc2c(c1)nc(-c1ccc(OCc3cc(C(=O)N4CCC(O)CC4)sc3-c3ccc(F)cc3)cc1F)n2C1CCCCC1 [Example 433, 2-{4-[{2-(4-fluorophenyl)-5-(4-hydroxypiperidin-1-ylcarbonyl)thiophen-3-yl}methoxy]-2-fluorophenyl}-1-cyclohexylbenzimidazole-5-carboxylic acid hydrochloride] | 14
10 | O=C(O)c1ccc(-c2ccc(Cl)cc2COc2ccc(-c3nc4cc(-c5nnn[nH]5)ccc4n3C3CCCCC3)c(F)c2)cc1 [Example 435, 2-{4-[2-(4-carboxyphenyl)-5-chlorobenzyloxy]-2-fluorophenyl}-1-cyclohexyl-5-tetrazol-5-ylbenzimidazole hydrochloride] | 12
11 | CC(C)NC(=O)c1ccc(-c2ccc(Cl)cc2)c(COc2ccc(-c3nc4cc(-c5noc(=O)[nH]5)ccc4n3C3CCCCC3)c(F)c2)c1 [Example 436, 2-{4-[2-(4-chlorophenyl)-5-(isopropylcarbamoyl)benzyloxy]-2-fluorophenyl}-1-cyclohexyl-5-(2,5-dihydro-5-oxo-4H-1,2,4-oxadiazol-3-yl)benzimidazole hydrochloride] | 26
12 | O=C(O)c1ccc2c(c1)nc(-c1cc(C(c3cccc(F)c3)c3cccc(F)c3)c(O)cc1F)n2C1CCCCC1 [Example 440, 2-{5-[bis(3-fluorophenyl)methyl]-2-fluoro-4-hydroxyphenyl}-1-cyclohexylbenzimidazole-5-carboxylic acid] | 70
13 | CN(C)C(=O)c1cccc(C(Oc2ccc(-c3nc4cc(C(=O)O)ccc4n3C3CCCCC3)c(F)c2)c2ccc(F)cc2)c1 (centres unmarked) [Example 442, 2-{4-[(3-dimethylcarbamoylphenyl)(4-fluorophenyl)methoxy]-2-fluorophenyl}-1-cyclohexylbenzimidazole-5-carboxylic acid hydrochloride] | 24
14 | O=C(O)c1ccc2c(c1)nc(-c1ccc(OC(c3ccc(F)cc3)c3cccc(C(=O)N4CCC(O)CC4)c3)cc1F)n2C1CCCCC1 (centres unmarked) [Example 443, 2-{4-[{3-(4-hydroxypiperidyl-1-ylcarbonyl)phenyl}(4-fluorophenyl)methoxy]-2-fluorophenyl}-1-cyclohexylbenzimidazole-5-carboxylic acid hydrochloride] | 30
15 | O=C(O[C@@H]1O[C@H](C(=O)O)[C@@H](O)[C@H](O)[C@H]1O)c1ccc2c(c1)nc(-c1ccc(OC(c3cccc(F)c3)c3cccc(F)c3)cc1F)n2C1CCCCC1 [Example 445, {[2-{4-[bis(3-fluorophenyl)methoxy]-2-fluorophenyl}-1-cyclohexylbenzimidazol-5-yl]carbonyl}-β-D-glucuronic acid] | 330
16 | O=C(O)c1ccc2c(c1)nc(-c1ccc(OCc3cc(N4CCCS4(=O)=O)ccc3-c3ccc(Cl)cc3)cc1F)n2C1CCCCC1 [Example 446, 2-{4-[2-(4-chlorophenyl)-5-(1,1-dioxoisothiazolidin-2-yl)benzyloxy]-2-fluorophenyl}-1-cyclohexylbenzimidazole-5-carboxylic acid hydrochloride] | 16
17 | CC(C)NC(=O)c1ccc(-c2ccc(Cl)cc2)c(COc2ccc(-c3nc4cc(S(N)(=O)=O)ccc4n3C3CCCCC3)c(F)c2)c1 [Example 447, 3-{[4-(5-aminosulfonyl-1-cyclohexylbenzimidazol-2-yl)-3-fluorophenoxy]methyl}-4-(4-chlorophenyl)-N-isopropylbenzamide] | 120
18 | CC(C)NC(=O)c1cccc(-c2ccc(Cl)cc2)c1COc1ccc(-c2nc3cc(C(=O)O)ccc3n2C2CCCCC2)c(F)c1 [Example 448, 2-[4-{2-(4-chlorophenyl)-6-(isopropylaminocarbonyl)benzyloxy}-2-fluorophenyl]-1-cyclohexylbenzimidazole-5-carboxylic acid hydrochloride] | 200
19 | O=C(O)c1ccc2c(c1)nc(-c1ccc(OCc3cc(N4CCCS4(=O)=O)c(F)cc3-c3ccc(Cl)cc3)cc1F)n2C1CCCCC1 [Example 449, 2-[4-{2-(4-chlorophenyl)-4-fluoro-5-(1,1-dioxoisothiazolidin-2-yl)benzyloxy}-2-fluorophenyl]-1-cyclohexylbenzimidazole-5-carboxylic acid hydrochloride] | 25
20 | COc1c(C(=O)O)ccc2c1nc(-c1ccc(OCc3cc(C(=O)NC(C)C)ccc3-c3ccc(Cl)cc3)cc1F)n2C1CCCCC1 [Example 450, 2-[4-{2-(4-chlorophenyl)-5-(isopropylaminocarbonyl)benzyloxy}-2-fluorophenyl]-1-cyclohexyl-4-methoxybenzimidazole-5-carboxylic acid hydrochloride] | 40
21 | CC(C)C(=O)N(C)c1ccc(-c2ccc(Cl)cc2)c(COc2ccc(-c3nc4cc(C(=O)O)ccc4n3C3CCCCC3)c(F)c2)c1 [Example 451, 2-[4-{2-(4-chlorophenyl)-5-(N-isopropylcarbonyl-N-methylamino)benzyloxy}-2-fluorophenyl]-1-cyclohexylbenzimidazole-5-carboxylic acid hydrochloride] | 31
22 | CC(C)C(=O)Nc1ccc(-c2ccc(Cl)cc2)c(COc2ccc(-c3nc4cc(C(=O)O)ccc4n3C3CCCCC3)c(F)c2)c1 [Example 452, 2-[4-{2-(4-chlorophenyl)-5-(isopropylcarbonylamino)benzyloxy}-2-fluorophenyl]-1-cyclohexylbenzimidazole-5-carboxylic acid hydrochloride] | 28
23 | O=C(O)c1ccc2c(c1)nc(-c1ccc(OCc3cc(N4CCCC4=O)c(F)cc3-c3ccc(Cl)cc3)cc1F)n2C1CCCCC1 [Example 454, 2-[4-{2-(4-chlorophenyl)-4-fluoro-5-(2-oxopyrrolidin-1-yl)benzyloxy}-2-fluorophenyl]-1-cyclohexylbenzimidazole-5-carboxylic acid hydrochloride] | 13
24 | CS(=O)(=O)Nc1ccc(-c2ccc(Cl)cc2)c(COc2ccc(-c3nc4cc(C(=O)O)ccc4n3C3CCCCC3)c(F)c2)c1 [Example 455, 2-[4-{2-(4-chlorophenyl)-5-(methylsulfonylamino)benzyloxy}-2-fluorophenyl]-1-cyclohexylbenzimidazole-5-carboxylic acid hydrochloride] | 15
25 | CN(c1ccc(-c2ccc(Cl)cc2)c(COc2ccc(-c3nc4cc(C(=O)O)ccc4n3C3CCCCC3)c(F)c2)c1)S(C)(=O)=O [Example 456, 2-[4-{2-(4-chlorophenyl)-5-[N-methyl-N-(methylsulfonyl)amino]benzyloxy}-2-fluorophenyl]-1-cyclohexylbenzimidazole-5-carboxylic acid hydrochloride] | 17
26 | O=C(O)c1ccc2c(c1)nc(-c1ccc(OCc3nc(N4CCCC4=O)ccc3-c3ccc(Cl)cc3)cc1F)n2C1CCCCC1 [Example 457, 2-[4-{[3-(4-chlorophenyl)-6-(2-oxopyrrolidin-1-yl)pyridin-2-yl]methyloxy}-2-fluorophenyl]-1-cyclohexylbenzimidazole-5-carboxylic acid hydrochloride] | 15
